ChEMBL document CHEMBL1201862, “PubChem BioAssay data set” (2004)
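96-well plates; 48 h exposure; 5 concentrations. Endpoints by linear interpolation between flanking doses. Not reached: highest tested concentration assigned. GI50: concentration for 50% inhibition of growth.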 The source made the active and inactive calls. No stated cut-off is given here; in the data, active = GI50 up to about 1.1 µM and inactive = higher.

Legend:
Assay in all cases: NCI-60 cell line screen, 48 h
HCT-116 = system: HCT-116
ACHN = system: ACHN
SF-539 = system: SF-539
LXFL 529 = system: LXFL 529
SK-MEL-2 = system: SK-MEL-2
SK-MEL-28 = system: SK-MEL-28
HCT-15 = system: HCT-15
SNB-75 = system: SNB-75
HOP-92 = system: HOP-92
TK-10 = system: TK-10
SN12C = system: SN12C
786-0 = system: 786-0
COLO 205 = system: COLO 205
NCI-H460 = system: NCI-H460
RXF 393 = system: RXF 393
DLD-1 = system: DLD-1
OVCAR-4 = system: OVCAR-4
U-251 = system: U-251
SNB-78 = system: SNB-78
OVCAR-5 = system: OVCAR-5
HOP-18 = system: HOP-18
A549 = system: A549
HT-29 = system: HT-29
M14 = system: M14
SNB-19 = system: SNB-19
SK-MEL-5 = system: SK-MEL-5
K562 = system: K562
RPMI-8226 = system: RPMI-8226
SW-620 = system: SW-620
SF-268 = system: SF-268
IGROV-1 = system: IGROV-1
NCI-H226 = system: NCI-H226
SF-295 = system: SF-295
OVCAR-3 = system: OVCAR-3
RXF 631 = system: RXF 631
UACC-257 = system: UACC-257
LOX IMVI = system: LOX IMVI
A498 = system: A498
SK-OV-3 = system: SK-OV-3
UO-31 = system: UO-31
UACC-62 = system: UACC-62
MOLT-4 = system: MOLT-4
HOP-62 = system: HOP-62
EKVX = system: EKVX
Malme-3M = system: Malme-3M
KM-20L2 = system: KM-20L2
SR = system: SR
CAKI-1 = system: CAKI-1
KM12 = system: KM12
CCRF-CEM = system: CCRF-CEM
DMS-273 = system: DMS-273
NCI-H23 = system: NCI-H23
DMS-114 = system: DMS-114
HCC 2998 = system: HCC 2998
M19-MEL = system: M19-MEL
XF498 = system: XF498
NCI-H522 = system: NCI-H522
HL-60 = system: HL-60

Cc1ccccc1-c1c(N)nc(NC#N)nc1C(=O)Nc1ccccc1
GI50 (HCT-116): > 100 µM (inactive)
GI50 (ACHN): > 100 µM (inactive)
GI50 (SF-539): > 100 µM (inactive)
GI50 (LXFL 529): 67.1 µM (inactive)
GI50 (SK-MEL-2): 32.1 µM (inactive)
GI50 (SK-MEL-28): > 100 µM (inactive)
GI50 (HCT-15): > 100 µM
GI50 (SNB-75): 76.4 µM (inactive)
GI50 (HOP-92): 42.9 µM (inactive)
GI50 (TK-10): > 100 µM (inactive)
GI50 (SN12C): 99.8 µM (inactive)
GI50 (786-0): > 100 µM (inactive)
GI50 (COLO 205): > 100 µM (inactive)
GI50 (NCI-H460): > 100 µM (inactive)
GI50 (RXF 393): > 100 µM (inactive)
GI50 (DLD-1): > 100 µM (inactive)
GI50 (OVCAR-4): > 100 µM (inactive)
GI50 (U-251): > 100 µM (inactive)
GI50 (SNB-78): > 100 µM (inactive)
GI50 (OVCAR-5): > 100 µM (inactive)
GI50 (HOP-18): > 100 µM (inactive)
GI50 (A549): > 100 µM (inactive)
GI50 (HT-29): > 100 µM (inactive)
GI50 (M14): > 100 µM (inactive)
GI50 (SNB-19): > 100 µM (inactive)
GI50 (SK-MEL-5): > 100 µM (inactive)
GI50 (K562): > 100 µM (inactive)
GI50 (RPMI-8226): > 100 µM (inactive)
GI50 (SW-620): > 100 µM (inactive)
GI50 (SF-268): > 100 µM (inactive)
GI50 (IGROV-1): > 100 µM (inactive)
GI50 (NCI-H226): > 100 µM (inactive)
GI50 (SF-295): > 100 µM (inactive)
GI50 (OVCAR-3): > 100 µM (inactive)
GI50 (RXF 631): > 100 µM (inactive)
GI50 (UACC-257): > 100 µM (inactive)
GI50 (LOX IMVI): > 100 µM (inactive)
GI50 (A498): > 100 µM (inactive)
GI50 (SK-OV-3): > 100 µM (inactive)
GI50 (UO-31): > 100 µM (inactive)
GI50 (UACC-62): > 100 µM (inactive)
GI50 (MOLT-4): > 100 µM (inactive)
GI50 (HOP-62): > 100 µM (inactive)
GI50 (EKVX): > 100 µM (inactive)
GI50 (Malme-3M): > 100 µM (inactive)
GI50 (KM-20L2): > 100 µM (inactive)
GI50 (SR): > 100 µM (inactive)
GI50 (CAKI-1): > 100 µM (inactive)
GI50 (KM12): > 100 µM (inactive)
GI50 (CCRF-CEM): > 100 µM (inactive)
GI50 (DMS-273): > 100 µM (inactive)
GI50 (NCI-H23): > 100 µM (inactive)
GI50 (DMS-114): > 100 µM (inactive)
GI50 (HCC 2998): > 100 µM (inactive)
GI50 (M19-MEL): > 100 µM (inactive)

CNC1CC(n2cc(C)c(=O)[nH]c2=O)OC1CO (stereo not drawn)
GI50 (HCT-116): > 100 µM (inactive)
GI50 (ACHN): > 100 µM (inactive)
GI50 (SF-539): > 100 µM (inactive)
GI50 (LXFL 529): > 100 µM (inactive)
GI50 (SK-MEL-2): > 100 µM (inactive)
GI50 (SK-MEL-28): > 100 µM (inactive)
GI50 (SNB-75): > 100 µM (inactive)
GI50 (HOP-92): > 100 µM (inactive)
GI50 (SN12C): > 100 µM (inactive)
GI50 (786-0): > 100 µM (inactive)
GI50 (COLO 205): > 100 µM (inactive)
GI50 (XF498): > 100 µM (inactive)
GI50 (DLD-1): > 100 µM (inactive)
GI50 (OVCAR-4): > 100 µM (inactive)
GI50 (M14): > 100 µM (inactive)
GI50 (K562): > 100 µM (inactive)
GI50 (RPMI-8226): > 100 µM (inactive)
GI50 (SF-268): > 100 µM (inactive)
GI50 (IGROV-1): > 100 µM (inactive)
GI50 (NCI-H226): > 100 µM (inactive)
GI50 (NCI-H522): > 100 µM (inactive)
GI50 (RXF 631): > 100 µM (inactive)
GI50 (A498): > 100 µM (inactive)
GI50 (SK-OV-3): > 100 µM (inactive)
GI50 (UO-31): > 100 µM (inactive)
GI50 (UACC-62): > 100 µM (inactive)
GI50 (HL-60): > 100 µM (inactive)
GI50 (MOLT-4): > 100 µM (inactive)
GI50 (HOP-62): > 100 µM (inactive)
GI50 (Malme-3M): > 100 µM (inactive)
GI50 (SR): > 100 µM (inactive)
GI50 (CAKI-1): > 100 µM (inactive)
GI50 (CCRF-CEM): > 100 µM (inactive)
GI50 (DMS-273): > 100 µM (inactive)
GI50 (NCI-H23): > 100 µM (inactive)
GI50 (DMS-114): > 100 µM (inactive)
GI50 (HCC 2998): > 100 µM (inactive)
GI50 (M19-MEL): > 100 µM (inactive)
